Reference: ChEMBL document CHEMBL4715829, “Heterodimeric Rifampicin-Tobramycin conjugates break intrinsic resistance of Pseudomonas aeruginosa to doxycycline and chloramphenicol in vitro and in a Galleria mellonella in vivo model” (Eur J Med Chem, 2019)

Assays:
Escherichia coli = assay: Potentiation of chloramphenicol-induced antibacterial activity against Escherichia coli ATCC 25922 assessed as fold change in chloramphenicol MIC at 9.8 uM incubated for 18 hrs in presence of chloramphenicol by broth microdilution assay relative to control; type: functional
Pseudomonas aeruginosa [1] = assay: Antibacterial activity against Pseudomonas aeruginosa 101885 assessed as fractional inhibitory concentration incubated for 18 hrs in presence of rifampicin by broth microdilution assay; type: functional
Pseudomonas aeruginosa [2] = assay: Antibacterial activity against Pseudomonas aeruginosa 114228 assessed as fractional inhibitory concentration incubated for 18 hrs in presence of rifampicin by broth microdilution assay; type: functional
Pseudomonas aeruginosa [3] = assay: Antibacterial activity against Pseudomonas aeruginosa 259-96918 assessed as potentiation of doxycycline-induced antibacterial activity by measuring doxycycline MIC at 9.8 uM incubated for 18 hrs in presence of doxycycline by broth microdilution assay (reference value: 32 ug/ml); type: functional
Pseudomonas aeruginosa [4] = assay: Antibacterial activity against Pseudomonas aeruginosa 262-101856 assessed as fractional inhibitory concentration index incubated for 18 hrs in presence of minocycline by broth microdilution assay; type: functional
Pseudomonas aeruginosa [5] = assay: Antibacterial activity against Pseudomonas aeruginosa 101885 assessed as fractional inhibitory concentration index incubated for 18 hrs in presence of tigecycline by broth microdilution assay; type: functional
Pseudomonas aeruginosa [6] = assay: Antibacterial activity against Pseudomonas aeruginosa 101885 assessed as fractional inhibitory concentration index incubated for 18 hrs in presence of minocycline by broth microdilution assay; type: functional
Pseudomonas aeruginosa [7] = assay: Potentiation of doxycycline-induced antibacterial activity against Pseudomonas aeruginosa PAO200 harboring mexA-mexB-oprM deletion mutant assessed as fold change in doxycycline MIC at <=9.8 uM incubated for 18 hrs in presence of doxycycline by broth microdilution assay; type: functional; conditions: dose microM <=9.8
Pseudomonas aeruginosa [8] = assay: Antibacterial activity against Pseudomonas aeruginosa 262-101856 assessed as fractional inhibitory concentration incubated for 18 hrs in presence of tigecycline by broth microdilution assay; type: functional
Pseudomonas aeruginosa [9] = assay: Potentiation of chloramphenicol-induced antibacterial activity against Pseudomonas aeruginosa 260-97103 assessed as fold change in chloramphenicol MIC at 9.8 uM incubated for 18 hrs in presence of chloramphenicol by broth microdilution assay relative to control; type: functional
Pseudomonas aeruginosa [10] = assay: Potentiation of doxycycline-induced antibacterial activity against Pseudomonas aeruginosa 260-97103 assessed as fold change in doxycycline MIC at 9.8 uM incubated for 18 hrs in presence of doxycycline by broth microdilution assay relative to control; type: functional
Pseudomonas aeruginosa [11] = assay: Antibacterial activity against Pseudomonas aeruginosa 260-97103 assessed as fractional inhibitory concentration index incubated for 18 hrs in presence of rifampicin by broth microdilution assay; type: functional
Pseudomonas aeruginosa [12] = assay: Antibacterial activity against Pseudomonas aeruginosa 100036 assessed as fractional inhibitory concentration incubated for 18 hrs in presence of tigecycline by broth microdilution assay; type: functional
Pseudomonas aeruginosa [13] = assay: Potentiation of doxycycline-induced antibacterial activity against Pseudomonas aeruginosa 91433 assessed as fold change in doxycycline MIC at 9.8 uM incubated for 18 hrs in presence of doxycycline by broth microdilution assay relative to control; type: functional
Acinetobacter baumannii = assay: Potentiation of chloramphenicol-induced antibacterial activity against Acinetobacter baumannii ATCC 17978 assessed as fold change in chloramphenicol MIC at 9.8 uM incubated for 18 hrs in presence of chloramphenicol by broth microdilution assay relative to control; type: functional
Pseudomonas aeruginosa [14] = assay: Antibacterial activity against Pseudomonas aeruginosa 101885 assessed as fractional inhibitory concentration incubated for 18 hrs in presence of minocycline by broth microdilution assay; type: functional
Pseudomonas aeruginosa [15] = assay: Antibacterial activity against Pseudomonas aeruginosa 91433 assessed as fractional inhibitory concentration index incubated for 18 hrs in presence of rifampicin by broth microdilution assay; type: functional
Pseudomonas aeruginosa [16] = assay: Antibacterial activity against Pseudomonas aeruginosa 100036 assessed as fractional inhibitory concentration index incubated for 18 hrs in presence of rifampicin by broth microdilution assay; type: functional
HepG2 = assay: Cytotoxicity against human HepG2 cells assessed as cell viability at 50 uM incubated for 48 hrs in presence of chloramphenicol by prestoblue assay; type: cell-based; conditions: hepg2, 48 h
Pseudomonas aeruginosa [17] = assay: Antibacterial activity against Pseudomonas aeruginosa 100036 assessed as potentiation of doxycycline-induced antibacterial activity by measuring doxycycline MIC at 9.8 uM incubated for 18 hrs in presence of doxycycline by broth microdilution assay (reference value: 64 ug/ml); type: functional
Pseudomonas aeruginosa [18] = assay: Potentiation of chloramphenicol-induced antibacterial activity against Pseudomonas aeruginosa 91433 assessed as fold change in chloramphenicol MIC at 7.6 uM incubated for 18 hrs in presence of chloramphenicol by broth microdilution assay relative to control; type: functional
Pseudomonas aeruginosa [19] = assay: Potentiation of doxycycline-induced antibacterial activity against Pseudomonas aeruginosa 91433 assessed as fold change in doxycycline MIC at 7.6 uM incubated for 18 hrs in presence of doxycycline by broth microdilution assay relative to control; type: functional
Pseudomonas aeruginosa [20] = assay: Antibacterial activity against Pseudomonas aeruginosa 260-97103 assessed as potentiation of chloramphenicol-induced antibacterial activity by measuring chloramphenicol MIC at 7.6 uM incubated for 18 hrs in presence of chloramphenicol by broth microdilution assay (reference value: 128 ug/ml); type: functional
Klebsiella pneumoniae = assay: Potentiation of doxycycline-induced antibacterial activity against Klebsiella pneumoniae ATCC 16381 assessed as fold change in doxycycline MIC at 7.6 uM incubated for 18 hrs in presence of doxycycline by broth microdilution assay relative to control; type: functional
Pseudomonas aeruginosa [21] = assay: Antibacterial activity against Pseudomonas aeruginosa 101885 assessed as potentiation of doxycycline-induced antibacterial activity by measuring doxycycline MIC at 7.6 uM incubated for 18 hrs in presence of doxycycline by broth microdilution assay (reference value: 64 ug/ml); type: functional
Pseudomonas aeruginosa [22] = assay: Potentiation of doxycycline-induced antibacterial activity against Pseudomonas aeruginosa 259-96918 assessed as fold change in doxycycline MIC at 7.6 uM incubated for 18 hrs in presence of doxycycline by broth microdilution assay relative to control; type: functional
Pseudomonas aeruginosa [23] = assay: Potentiation of doxycycline-induced antibacterial activity against Pseudomonas aeruginosa 264-101354 assessed as fold change in doxycycline MIC at 7.6 uM incubated for 18 hrs in presence of doxycycline by broth microdilution assay relative to control; type: functional
Pseudomonas aeruginosa [24] = assay: Antibacterial activity against Pseudomonas aeruginosa 100036 assessed as reduction in bacterial growth by measuring doxycycline MIC at 8 ug/ml incubated for 18 hrs in presence of doxycycline by broth microdilution assay (reference value: 64 ug/ml); type: functional; conditions: dose 8 µg/ml
Pseudomonas aeruginosa [25] = assay: Antibacterial activity against Pseudomonas aeruginosa 260-97103 assessed as fractional inhibitory concentration incubated for 18 hrs in presence of doxycycline by broth microdilution assay; type: functional
Pseudomonas aeruginosa [26] = assay: Antibacterial activity against wild type Pseudomonas aeruginosa PAO1 assessed as reduction in bacterial growth by measuring doxycycline MIC at 8 ug/ml incubated for 18 hrs in presence of doxycycline by broth microdilution assay (reference value: 16 ug/ml); type: functional; conditions: dose 8 µg/ml
Pseudomonas aeruginosa [27] = assay: Antibacterial activity against Pseudomonas aeruginosa 100036 assessed as reduction in bacterial growth by measuring doxycycline MIC at 4 ug/ml incubated for 18 hrs in presence of doxycycline by broth microdilution assay (reference value: 64 ug/ml); type: functional; conditions: dose 4 µg/ml

Structure (SMILES): CO[C@H]1/C=C/O[C@@]2(C)Oc3c(C)c(O)c4c(O)c(c(/C=N/N5CCN(Cc6cn(CCCCCCO[C@@H]7[C@@H](O[C@H]8O[C@H](CO)[C@@H](O)[C@H](N)[C@H]8O)[C@H](N)C[C@H](N)[C@H]7O[C@H]7O[C@H](CN)[C@@H](O)C[C@H]7N)nn6)CC5)c(O)c4c3C2=O)NC(=O)/C(C)=C\C=C\[C@H](C)[C@H](O)[C@@H](C)[C@@H](O)[C@@H](C)[C@H](OC(C)=O)[C@@H]1C.Cl.Cl.Cl.Cl.Cl
- fold change (FC) (Escherichia coli): 0
- FIC (Pseudomonas aeruginosa [1]): 0.063
- FIC (Pseudomonas aeruginosa [2]): <0.031
- MIC (Pseudomonas aeruginosa [3]): 1 µg/mL
- fractional inhibitory concentration index (FICI) (Pseudomonas aeruginosa [4]): <0.09
- fractional inhibitory concentration index (FICI) (Pseudomonas aeruginosa [5]): 0.19
- fractional inhibitory concentration index (FICI) (Pseudomonas aeruginosa [6]): 0.13
- fold change (FC) (Pseudomonas aeruginosa [7]): 8
- FIC (Pseudomonas aeruginosa [8]): <0.063
- fold change (FC) (Pseudomonas aeruginosa [9]): 4
- fold change (FC) (Pseudomonas aeruginosa [10]): 4
- fractional inhibitory concentration index (FICI) (Pseudomonas aeruginosa [11]): <0.16
- FIC (Pseudomonas aeruginosa [12]): 0.004
- fold change (FC) (Pseudomonas aeruginosa [13]): 4
- fold change (FC) (Acinetobacter baumannii): 0
- FIC (Pseudomonas aeruginosa [14]): 0.063
- fractional inhibitory concentration index (FICI) (Pseudomonas aeruginosa [15]): 1.13
- fractional inhibitory concentration index (FICI) (Pseudomonas aeruginosa [16]): 0.31
- Activity (HepG2): Non-Toxic
- MIC (Pseudomonas aeruginosa [17]): 1 µg/mL

Structure (SMILES): CO[C@H]1/C=C/O[C@@]2(C)Oc3c(C)c(O)c4c(O)c(c(/C=N/N5CCN(Cc6cn(CCCCCCCCCCCCO[C@@H]7[C@@H](O[C@H]8O[C@H](CO)[C@@H](O)[C@H](N)[C@H]8O)[C@H](N)C[C@H](N)[C@H]7O[C@H]7O[C@H](CN)[C@@H](O)C[C@H]7N)nn6)CC5)c(O)c4c3C2=O)NC(=O)/C(C)=C\C=C\[C@H](C)[C@H](O)[C@@H](C)[C@@H](O)[C@@H](C)[C@H](OC(C)=O)[C@@H]1C.O=C(O)C(F)(F)F.O=C(O)C(F)(F)F.O=C(O)C(F)(F)F.O=C(O)C(F)(F)F.O=C(O)C(F)(F)F
- fold change (FC) (Pseudomonas aeruginosa [18]): 4
- fold change (FC) (Pseudomonas aeruginosa [19]): 4
- MIC (Pseudomonas aeruginosa [20]): 0.5 µg/mL
- fold change (FC) (Klebsiella pneumoniae): 0
- MIC (Pseudomonas aeruginosa [21]): 2 µg/mL
- fold change (FC) (Pseudomonas aeruginosa [22]): 4
- fold change (FC) (Pseudomonas aeruginosa [23]): 4

Structure (SMILES): NC[C@H]1O[C@H](O[C@H]2[C@H](O)[C@@H](O[C@H]3O[C@H](CO)[C@@H](O)[C@H](N)[C@H]3O)[C@H](N)C[C@@H]2N)[C@H](N)C[C@@H]1O [TOBRAMYCIN]
- MIC (Pseudomonas aeruginosa [24]): 64 µg/mL
- FIC (Pseudomonas aeruginosa [25]): 0.5

Structure (SMILES): CO[C@H]1/C=C/O[C@@]2(C)Oc3c(C)c(O)c4c(O)c(c(/C=N/N5CCN(C)CC5)c(O)c4c3C2=O)NC(=O)/C(C)=C\C=C\[C@H](C)[C@H](O)[C@@H](C)[C@@H](O)[C@@H](C)[C@H](OC(C)=O)[C@@H]1C [RIFAMPIN]
- MIC (Pseudomonas aeruginosa [26]): 16 µg/mL
- MIC (Pseudomonas aeruginosa [27]): 64 µg/mL
